Results as given in paper PMC6572064, “Discovery of 2-(1-(3-(4-Chloroxyphenyl)-3-oxo- propyl)pyrrolidine-3-yl)-1H-benzo[d]imidazole-4-carboxamide: A Potent Poly(ADP-ribose) Polymerase (PARP) Inhibitor for Treatment of Cancer” (Molecules, 2019).
Read-outs that look alike come from different tables or passages of the source.

Assays:
[1] = test system: MDA-MB-436 (a BRCA-1-mutated breast cancer cell line); assay: Cell proliferation assay, three-day, CellTiter-Glo, MDA-MB-436; format: cell-based; conditions: Homo sapiens; for inhibition at 0.00508 µM: MDA-MB-436, MDA-MB-436, Conc. 0.00508 uM; for inhibition at 0.0152 µM: MDA-MB-436, MDA-MB-436, Conc. 0.0152 uM; for inhibition at 0.0457 µM: MDA-MB-436, MDA-MB-436, Conc. 0.0457 uM; for inhibition at 0.41 µM: MDA-MB-436, MDA-MB-436, Conc. 0.41 uM; for inhibition at 1.23 µM: MDA-MB-436, MDA-MB-436, Conc. 1.23 uM; for inhibition at 3.7 µM: MDA-MB-436, MDA-MB-436, Conc. 3.70 uM; for inhibition at 11.11 µM: MDA-MB-436, MDA-MB-436, Conc. 11.11 uM; for inhibition at 33.33 µM: MDA-MB-436, MDA-MB-436, Conc. 33.33 uM; for inhibition at 100 µM: MDA-MB-436, MDA-MB-436, Conc. 100.00 uM; for IC50: MDA-MB-436, 72 h, CellTiter-Glo, read-out: MDA-MB-436 IC50
Method in brief: (§1)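 Luminescent ATP read-out (CellTiter-Glo, 60 min at room temperature) quantified viability after a 72 h compound exposure at 37 °C, 5% CO2. Compounds, diluted from DMSO stocks into growth medium, were added to cells plated the previous day.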

[2] = biological target: T1, PARP-2 (Homo sapiens, UniProt Q9UGN5); assay: PARP-2 inhibition assay (PARP-2 Chemiluminescent Assay Kit, BPS Bioscience); format: biochemical
T1 construct: purchased BPS Bioscience 80552
T1 sequence (Q9UGN5 whole entry): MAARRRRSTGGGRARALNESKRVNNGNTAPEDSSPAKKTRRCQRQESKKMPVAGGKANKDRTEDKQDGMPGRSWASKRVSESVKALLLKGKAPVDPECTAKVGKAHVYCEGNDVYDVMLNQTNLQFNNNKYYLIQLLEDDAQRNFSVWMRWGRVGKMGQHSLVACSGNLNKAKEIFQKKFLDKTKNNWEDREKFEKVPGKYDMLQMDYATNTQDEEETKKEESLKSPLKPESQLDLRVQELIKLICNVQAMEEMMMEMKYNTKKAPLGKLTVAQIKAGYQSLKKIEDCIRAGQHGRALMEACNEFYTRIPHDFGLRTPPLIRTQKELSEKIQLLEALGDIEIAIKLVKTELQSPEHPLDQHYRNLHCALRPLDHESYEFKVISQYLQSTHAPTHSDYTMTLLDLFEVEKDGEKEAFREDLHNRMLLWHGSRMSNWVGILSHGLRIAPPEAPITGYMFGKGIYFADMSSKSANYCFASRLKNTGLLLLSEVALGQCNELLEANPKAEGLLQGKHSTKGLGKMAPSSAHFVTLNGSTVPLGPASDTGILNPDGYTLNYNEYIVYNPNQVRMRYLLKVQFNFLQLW
Method: (§2) The PARP-1 and PARP-2 inhibition assays were performed in outsourcing, by a CRO company, Shanghai Medicilon Inc. (Shanghai, China). […] Briefly, PARP-1 or PARP-2 biotinylated substrate was incubated with compounds or solvent control at varying concentrations and an assay buffer containing the PARP-1 or PARP-2 enzyme.

[3] = test system: CAPAN-1 (a BRCA-2-mutated pancreatic cancer cell line); assay: Cell proliferation assay, three-day, CellTiter-Glo, CAPAN-1; format: cell-based; conditions: for IC50 / inhibition at 0.00508 µM / inhibition at 0.0152 µM / inhibition at 0.0457 µM / inhibition at […] / inhibition at 0.41 µM / inhibition at 1.23 µM / inhibition at 3.7 µM / inhibition at 11.11 µM / inhibition at 33.33 µM / inhibition at 100 µM: Homo sapiens; for IC50: CAPAN-1, read-out: CAPAN-1 IC50; for inhibition at 0.00508 µM: CAPAN-1, Conc. 0.00508 uM; for inhibition at 0.0152 µM: CAPAN-1, Conc. 0.0152 uM; for inhibition at 0.0457 µM: CAPAN-1, Conc. 0.0457 uM; for inhibition at […]: CAPAN-1, Conc. 0.14 uM; for inhibition at 0.41 µM: CAPAN-1, Conc. 0.41 uM; for inhibition at 1.23 µM: CAPAN-1, Conc. 1.23 uM; for inhibition at 3.7 µM: CAPAN-1, Conc. 3.70 uM; for inhibition at 11.11 µM: CAPAN-1, Conc. 11.11 uM; for inhibition at 33.33 µM: CAPAN-1, Conc. 33.33 uM; for inhibition at 100 µM: CAPAN-1, Conc. 100.00 uM
Method in brief: as §1

[4] = biological target: T2, PARP-1 (Homo sapiens, UniProt P09874); assay: PARP-1 inhibition assay (PARP-1 Chemiluminescent Assay Kit, BPS Bioscience); format: biochemical
T2 construct: purchased BPS Bioscience 80569
T2 sequence (P09874 whole entry): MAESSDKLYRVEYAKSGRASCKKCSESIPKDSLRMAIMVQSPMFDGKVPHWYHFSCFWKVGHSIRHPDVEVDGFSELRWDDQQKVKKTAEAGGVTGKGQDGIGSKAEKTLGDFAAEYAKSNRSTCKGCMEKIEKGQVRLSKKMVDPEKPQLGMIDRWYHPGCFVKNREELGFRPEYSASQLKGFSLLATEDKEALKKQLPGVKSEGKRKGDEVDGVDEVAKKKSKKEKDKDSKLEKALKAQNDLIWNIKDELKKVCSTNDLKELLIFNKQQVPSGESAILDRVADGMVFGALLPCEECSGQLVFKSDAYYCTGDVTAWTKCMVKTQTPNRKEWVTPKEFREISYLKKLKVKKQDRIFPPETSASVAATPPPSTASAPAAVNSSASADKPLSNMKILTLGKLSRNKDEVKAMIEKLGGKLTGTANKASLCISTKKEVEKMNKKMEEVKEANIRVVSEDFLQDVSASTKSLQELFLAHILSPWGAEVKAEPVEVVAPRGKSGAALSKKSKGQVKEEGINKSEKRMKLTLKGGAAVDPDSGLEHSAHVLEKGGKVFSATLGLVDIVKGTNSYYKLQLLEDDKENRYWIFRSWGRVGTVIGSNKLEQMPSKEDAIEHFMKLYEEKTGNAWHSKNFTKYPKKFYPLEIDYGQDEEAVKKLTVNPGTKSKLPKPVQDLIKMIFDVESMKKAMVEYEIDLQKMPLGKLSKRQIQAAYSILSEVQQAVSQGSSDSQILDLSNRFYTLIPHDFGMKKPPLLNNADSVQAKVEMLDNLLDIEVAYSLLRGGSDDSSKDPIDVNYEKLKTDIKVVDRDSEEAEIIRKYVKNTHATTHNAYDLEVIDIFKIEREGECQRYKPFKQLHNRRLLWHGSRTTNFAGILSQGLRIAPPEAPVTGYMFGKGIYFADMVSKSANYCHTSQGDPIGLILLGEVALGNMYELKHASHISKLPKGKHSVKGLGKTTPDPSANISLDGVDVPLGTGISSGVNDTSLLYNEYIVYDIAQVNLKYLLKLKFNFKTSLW
Method: as §2

SMILES: NC(=O)c1cccc2[nH]c(C3CCN(CCNC(=O)c4ccccc4)C3)nc12 (stereo not drawn) [Compound 5co, 2-(1-(2-Benzamidoethyl)pyrrolidin-3-yl)-1H-benzo[d]imidazole-4-carboxamide]
- inhibition at 0.00508 µM ([1]; replicate 1, read-out: Inh % 1): 0.116%
- inhibition at 0.00508 µM ([1]; replicate 2, read-out: Inh % 2): -6.8%
- inhibition at 0.0152 µM ([1]; replicate 1, read-out: Inh % 1): 3.3%
- inhibition at 0.0152 µM ([1]; replicate 2, read-out: Inh % 2): -2.8%
- inhibition at 0.0457 µM ([1]; replicate 1, read-out: Inh % 1): -7.2%
- inhibition at 0.0457 µM ([1]; replicate 2, read-out: Inh % 2): -12.8%
- inhibition at 0.41 µM ([1]; replicate 1, read-out: Inh % 1): -3.1%
- inhibition at 0.41 µM ([1]; replicate 2, read-out: Inh % 2): -1.7%
- inhibition at 1.23 µM ([1]; replicate 1, read-out: Inh % 1): 5.2%
- inhibition at 1.23 µM ([1]; replicate 2, read-out: Inh % 2): -9.2%
- inhibition at 3.7 µM ([1]; replicate 1, read-out: Inh % 1): -2%
- inhibition at 3.7 µM ([1]; replicate 2, read-out: Inh % 2): -0.8%
- inhibition at 11.11 µM ([1]; replicate 1, read-out: Inh % 1): 2.4%
- inhibition at 11.11 µM ([1]; replicate 2, read-out: Inh % 2): -2.7%
- inhibition at 33.33 µM ([1]; replicate 1, read-out: Inh % 1): 15.5%
- inhibition at 33.33 µM ([1]; replicate 2, read-out: Inh % 2): 10.6%
- inhibition at 100 µM ([1]; replicate 1, read-out: Inh % 1): 25.7%
- inhibition at 100 µM ([1]; replicate 2, read-out: Inh % 2): 18.3%
- IC50 [1]: > 100000 nM
- inhibition at 0.01 µM ([2]; 10 nM compound, supplement sheet, read-out: 10 nM inhibition% PAPR-2): 66.2%
- inhibition at 0.01 µM ([2]; 10 nM compound, read-out: PARP-2 Inhibition % (10 nM)): 66.2%
- IC50 ([2]; read-out: PARP-2 IC50): 5.7 nM
- IC50 ([2]; supplement sheet, read-out: IC50 PAPR-2): 5.67 nM
- IC50 ([3]; 72 h, CellTiter-Glo): > 100000 nM
- inhibition at 0.00508 µM ([3]; replicate 1, read-out: Inh % 1): -4.9%
- inhibition at 0.00508 µM ([3]; replicate 2, read-out: Inh % 2): -7.9%
- inhibition at 0.0152 µM ([3]; replicate 1, read-out: Inh % 1): 7.4%
- inhibition at 0.0152 µM ([3]; replicate 2, read-out: Inh % 2): -1.7%
- inhibition at 0.0457 µM ([3]; replicate 1, read-out: Inh % 1): 10.8%
- inhibition at 0.0457 µM ([3]; replicate 2, read-out: Inh % 2): 10.6%
- inhibition at […] ([3]; replicate 1, read-out: Inh % 1): 5.7%
- inhibition at […] ([3]; replicate 2, read-out: Inh % 2): 0.8%
- inhibition at 0.41 µM ([3]; replicate 1, read-out: Inh % 1): 7.1%
- inhibition at 0.41 µM ([3]; replicate 2, read-out: Inh % 2): 6.9%
- inhibition at 1.23 µM ([3]; replicate 1, read-out: Inh % 1): 9.2%
- inhibition at 1.23 µM ([3]; replicate 2, read-out: Inh % 2): 5%
- inhibition at 3.7 µM ([3]; replicate 1, read-out: Inh % 1): 25%
- inhibition at 3.7 µM ([3]; replicate 2, read-out: Inh % 2): 11.1%
- inhibition at 11.11 µM ([3]; replicate 1, read-out: Inh % 1): 17.9%
- inhibition at 11.11 µM ([3]; replicate 2, read-out: Inh % 2): -1.4%
- inhibition at 33.33 µM ([3]; replicate 1, read-out: Inh % 1): 16%
- inhibition at 33.33 µM ([3]; replicate 2, read-out: Inh % 2): 13.7%
- inhibition at 100 µM ([3]; replicate 1, read-out: Inh % 1): 29.2%
- inhibition at 100 µM ([3]; replicate 2, read-out: Inh % 2): 25.9%
- inhibition at 0.01 µM ([4]; 10 nM compound, supplement sheet, read-out: 10 nM inhibition% PAPR-1): 38.4%
- inhibition at 0.01 µM ([4]; 10 nM compound, read-out: PARP-1 Inhibition % (10 nM)): 38.4%
- IC50 ([4]; read-out: PARP-1 IC50): 11.1 nM

SMILES: C[C@]1(c2nc3c(C(N)=O)cccc3[nH]2)CCCN1 [pc1, Veliparib, reference compound]
- inhibition at 0.00508 µM ([1]; replicate 1, read-out: Inh % 1): 0.064%
- inhibition at 0.00508 µM ([1]; replicate 2, read-out: Inh % 2): -7.5%
- inhibition at 0.0152 µM ([1]; replicate 1, read-out: Inh % 1): -2.6%
- inhibition at 0.0152 µM ([1]; replicate 2, read-out: Inh % 2): -6.6%
- inhibition at 0.0457 µM ([1]; replicate 1, read-out: Inh % 1): -7.5%
- inhibition at 0.0457 µM ([1]; replicate 2, read-out: Inh % 2): -6.4%
- inhibition at 0.41 µM ([1]; replicate 1, read-out: Inh % 1): -3.2%
- inhibition at 0.41 µM ([1]; replicate 2, read-out: Inh % 2): -9.9%
- inhibition at 1.23 µM ([1]; replicate 1, read-out: Inh % 1): -5.4%
- inhibition at 1.23 µM ([1]; replicate 2, read-out: Inh % 2): -2.1%
- inhibition at 3.7 µM ([1]; replicate 1, read-out: Inh % 1): -2.1%
- inhibition at 3.7 µM ([1]; replicate 2, read-out: Inh % 2): 2.6%
- inhibition at 11.11 µM ([1]; replicate 1, read-out: Inh % 1): 3.2%
- inhibition at 11.11 µM ([1]; replicate 2, read-out: Inh % 2): 2.2%
- inhibition at 33.33 µM ([1]; replicate 1, read-out: Inh % 1): 11.6%
- inhibition at 33.33 µM ([1]; replicate 2, read-out: Inh % 2): 7.4%
- inhibition at 100 µM ([1]; replicate 1, read-out: Inh % 1): 34.3%
- inhibition at 100 µM ([1]; replicate 2, read-out: Inh % 2): 20.3%
- IC50 [1]: > 100000 nM
- inhibition at 0.01 µM ([2]; read-out: 10 nM inhibition% PAPR-2): 78.3%
- inhibition at 0.01 µM ([2]; read-out: PARP-2 Inhibition % (10 nM)): 78.3%
- CAPAN-1 IC50 (μM) ([3]; 72 h, CellTiter-Glo): low potency
- LogIC50 ([3]; CAPAN-1, curve-fit output, concentration axis Log (uM)): 2.067
- IC50 ([3]; 72 h, CellTiter-Glo): > 100000 nM
- inhibition at 0.00508 µM ([3]; replicate 1, read-out: Inh % 1): -10.6%
- inhibition at 0.00508 µM ([3]; replicate 2, read-out: Inh % 2): 3.8%
- inhibition at 0.0152 µM ([3]; replicate 1, read-out: Inh % 1): -2.1%
- inhibition at 0.0152 µM ([3]; replicate 2, read-out: Inh % 2): -6.9%
- inhibition at 0.0457 µM ([3]; replicate 1, read-out: Inh % 1): -0.346%
- inhibition at 0.0457 µM ([3]; replicate 2, read-out: Inh % 2): 3%
- inhibition at […] ([3]; replicate 1, read-out: Inh % 1): 9.5%
- inhibition at […] ([3]; replicate 2, read-out: Inh % 2): 7.1%
- inhibition at 0.41 µM ([3]; replicate 1, read-out: Inh % 1): 7.8%
- inhibition at 0.41 µM ([3]; replicate 2, read-out: Inh % 2): -1.8%
- inhibition at 1.23 µM ([3]; replicate 1, read-out: Inh % 1): -10.7%
- inhibition at 1.23 µM ([3]; replicate 2, read-out: Inh % 2): -7.2%
- inhibition at 3.7 µM ([3]; replicate 1, read-out: Inh % 1): -17.8%
- inhibition at 3.7 µM ([3]; replicate 2, read-out: Inh % 2): -16.7%
- inhibition at 11.11 µM ([3]; replicate 1, read-out: Inh % 1): 5%
- inhibition at 11.11 µM ([3]; replicate 2, read-out: Inh % 2): 7.2%
- inhibition at 33.33 µM ([3]; replicate 1, read-out: Inh % 1): 12.5%
- inhibition at 33.33 µM ([3]; replicate 2, read-out: Inh % 2): 11.9%
- inhibition at 100 µM ([3]; replicate 1, read-out: Inh % 1): 43.2%
- inhibition at 100 µM ([3]; replicate 2, read-out: Inh % 2): 42.4%
- inhibition at 0.01 µM ([4]; read-out: 10 nM inhibition% PAPR-1): 54.3%
- inhibition at 0.01 µM ([4]; read-out: PARP-1 Inhibition % (10 nM)): 63.7%
